In patent publication US8614214B2, “Pyrazole amide compounds and uses thereof” (Sinochem Corporation, priority 2010, dated 2013):
Read-outs that look alike come from different tables or passages of the source.

Tests used:
corn rust = test: Greenhouse pot seedling assay, corn rust; type: in vivo; details: for Control (%): comparative test, Table 20; for control of corn rust / pest or weed control at 400 ppm: 400 ppm; for pest or weed control at 400 ppm: Zea mays, 192 h, Table 21, read-out: Biological activity in greenhouse, corn rust
cucumber downy mildew [1] = test: Greenhouse pot seedling assay, cucumber downy mildew; type: in vivo; details: for Control (%): comparative test, Table 18; for pest or weed control at 400 ppm: Cucumis sativus, 120 h, Table 21, read-out: Biological activity in greenhouse, cucumber downy mildew
rice blast [2] = type: cell-based; details: 25 ppm
wheat powdery mildew = test: Greenhouse pot seedling assay, wheat powdery mildew; type: in vivo; details: for control of wheat powdery mildew: 400 ppm; for pest or weed control at 400 ppm: Triticum aestivum, 192 h, Table 21, read-out: Biological activity in greenhouse, wheat powdery mildew
cucumber downy mildew [3] = test: Field trial against cucumber downy mildew; type: in vivo; details: for Control (%) average: average of 3 replicates; for Control (%) I: replicate I; for Control (%) II: replicate II; for Control (%) III: replicate III
Procedure: The trial was carried out in a greenhouse in July 2011 in […] district, Shanxi Province. Before the treatment, the cucumber plants were at the beginning of infection. The trial method was based on the National Standard of the People's Republic of China-“Pesticide-Guidelines for The Field Efficacy Trials”. […] The Area of plot was 15 m^2, random arrangement and 3 times replication. The volume was about 600 L/hm^2, and water was as the control. Efficacy calculation method is as follows: [formula] [formula]

cucumber downy mildew [4] = test: Persistence comparative test against cucumber downy mildew (greenhouse); type: in vivo
rice blast [5] = type: in vivo; details: 600 ppm, field

## Fc1ccc([C@]2(Cn3cncn3)O[C@H]2c2ccccc2Cl)cc1 (racemic) [epoxiconazole, reference compound]
Corn rust; 3.13 ppm
  Control (%): 40%
Corn rust; 6.25 ppm
  Control (%): 75%
Corn rust; 12.5 ppm
  Control (%): 90%
Corn rust; 25 ppm
  Control (%): 95%
Corn rust; 50 ppm
  Control (%): 100%
Corn rust; 100 ppm
  Control (%): 100%

## C[C@@]1(c2ccc(Oc3ccccc3)cc2)OC(=O)N(Nc2ccccc2)C1=O (racemic) [famoxadone, reference compound]
Cucumber downy mildew [1]; 6.25 ppm
  Control (%): 14%
Cucumber downy mildew [1]; 12.5 ppm
  Control (%): 22%
Cucumber downy mildew [1]; 25 ppm
  Control (%): 51%
Cucumber downy mildew [1]; 50 ppm
  Control (%): 74%
Cucumber downy mildew [1]; 100 ppm
  Control (%): 81%

## CNC(=O)c1ccccc1NC(=O)COc1ccc(CNC(=O)c2cc(C)nn2C)cc1 [Compound 2]
Rice blast [2]
  inhibition ratio on spore germination of rice blast: 100%
Cucumber downy mildew [1]; 25 ppm, greenhouse
  control of cucumber downy mildew: 75%
Cucumber downy mildew [1]; 50 ppm, greenhouse
  control of cucumber downy mildew: 100%
Cucumber downy mildew [1]; 400 ppm, greenhouse
  control of cucumber downy mildew: 100%
Wheat powdery mildew; greenhouse
  control of wheat powdery mildew: 100%
Corn rust; greenhouse
  control of corn rust: 100%

## CCc1cc(C(=O)NCc2ccc(OCC(=O)Nc3ccccc3C(=O)NC)cc2)n(C)n1 [Compound 3]
Rice blast [2]
  inhibition ratio on spore germination of rice blast: 100%
Cucumber downy mildew [1]; 25 ppm
  control of cucumber downy mildew: 95%
Cucumber downy mildew [1]; 50 ppm
  control of cucumber downy mildew: 100%
Cucumber downy mildew [1]; 400 ppm
  control of cucumber downy mildew: 100%
Wheat powdery mildew
  control of wheat powdery mildew: 100%
Corn rust
  control of corn rust: 100%

## CCc1nn(C)c(C(=O)NCc2ccc(OCC(=O)Nc3ccccc3C(=O)NC)cc2)c1Cl [Compound 16]
Rice blast [2]; in vitro
  inhibition ratio on spore germination of rice blast: 100%
Cucumber downy mildew [1]; 25 ppm, greenhouse
  control of cucumber downy mildew: 100%
Cucumber downy mildew [1]; 50 ppm, greenhouse
  control of cucumber downy mildew: 100%
Cucumber downy mildew [1]; 400 ppm, greenhouse
  control of cucumber downy mildew: 100%
Wheat powdery mildew; greenhouse
  control of wheat powdery mildew: 100%
other
  melting point: 160 to 161 °C
Corn rust; greenhouse
  control of corn rust: 100%

## CCCc1nn(C)c(C(=O)NCc2ccc(OCC(=O)Nc3ccccc3C(=O)NC)cc2)c1Cl [Compound 17]
Corn rust; greenhouse
  control of corn rust: 100%

## CCc1nn(C)c(C(=O)NCc2ccc(O[C@H](C)C(=O)Nc3ccccc3C(=O)NC)cc2)c1Cl [Compound 66]
Cucumber downy mildew [1]; 400 ppm, greenhouse
  control of cucumber downy mildew: 100%
Corn rust; greenhouse
  control of corn rust: 100%

## CCc1nn(C)c(C(=O)NCc2ccc(O[C@@H](C)C(=O)Nc3ccccc3C(=O)NC)cc2)c1Cl [Compound 69]
Cucumber downy mildew [1]; 400 ppm, greenhouse
  control of cucumber downy mildew: 100%
Corn rust; greenhouse
  control of corn rust: 100%

## CCOC(=O)c1cccc(C)c1NC(=O)COc1ccc(CNC(=O)c2c(Cl)c(C)nn2C)cc1 [Compound 94]
Corn rust; greenhouse
  control of corn rust: 100%

## CCOC(=O)c1ccccc1NC(=O)COc1ccc(CNC(=O)c2c(Cl)c(C)nn2C)cc1 [Compound 95]
Rice blast [2]
  inhibition ratio on spore germination of rice blast: 100%
Corn rust; greenhouse
  control of corn rust: 100%

## CCOC(=O)c1ccccc1NC(=O)COc1ccc(CNC(=O)c2c(Cl)c(CC)nn2C)cc1 [Compound 99]
Corn rust; greenhouse
  control of corn rust: 100%

## Cc1nn(C)c(C(=O)NCc2ccc(OCC(=O)Nc3ccccc3C(N)=O)cc2)c1Cl [Compound 156]
Corn rust; greenhouse
  control of corn rust: 100%

## CCNC(=O)c1cccc(C)c1NC(=O)COc1ccc(CNC(=O)c2cc(C)nn2C)cc1 [Compound 177]
Rice blast [2]
  inhibition ratio on spore germination of rice blast: 100%
Cucumber downy mildew [1]; 25 ppm, greenhouse
  control of cucumber downy mildew: 100%
Cucumber downy mildew [1]; 50 ppm, greenhouse
  control of cucumber downy mildew: 100%
Cucumber downy mildew [1]; 400 ppm, greenhouse
  control of cucumber downy mildew: 100%
Wheat powdery mildew; greenhouse
  control of wheat powdery mildew: 100%
Corn rust; greenhouse
  control of corn rust: 100%

## CNC(=O)c1ccccc1NC(=O)COc1ccc(CN)cc1 [II-1, 2-(2-(4-(aminomethyl)phenoxy)acetamido)-N-methylbenzamide]
Cucumber downy mildew [1]; 400 ppm
  pest or weed control at 400 ppm: 0%
Wheat powdery mildew
  pest or weed control at 400 ppm: 100%
other
  melting point: 109 to 110 °C
Corn rust
  pest or weed control at 400 ppm: 0%

## CNC(=O)c1ccccc1NC(=O)CCl [VI-1, 2-(2-chloroacetamido)-N-methylbenzamide]
Cucumber downy mildew [1]; 400 ppm
  pest or weed control at 400 ppm: 0%
Wheat powdery mildew
  pest or weed control at 400 ppm: 0%
other
  melting point: 155 to 157 °C
Corn rust
  pest or weed control at 400 ppm: 0%

## COC(=O)c1ccccc1NC(=O)CCl [VI-20]
Cucumber downy mildew [1]; 400 ppm
  pest or weed control at 400 ppm: 0%
Wheat powdery mildew
  pest or weed control at 400 ppm: 0%
other
  melting point: 92 to 94 °C
Corn rust
  pest or weed control at 400 ppm: 0%

## CNC(=O)c1ccccc1NC(=O)C(C)Cl (centres unmarked) [VI-54]
Cucumber downy mildew [1]; 400 ppm
  pest or weed control at 400 ppm: 30%
Wheat powdery mildew
  pest or weed control at 400 ppm: 0%
other
  melting point: 121 to 122 °C
Corn rust
  pest or weed control at 400 ppm: 0%

## COC(=O)c1ccccc1NC(=O)C(C)Cl (centres unmarked) [VI-56]
Cucumber downy mildew [1]; 400 ppm
  pest or weed control at 400 ppm: 75%
Wheat powdery mildew
  pest or weed control at 400 ppm: 0%
other
  melting point: 63 to 65 °C
Corn rust
  pest or weed control at 400 ppm: 30%

## Cc1nn(C)c(C(=O)NCc2ccc(O)cc2)c1Cl [VIII-1]
Cucumber downy mildew [1]; 400 ppm
  pest or weed control at 400 ppm: 95%
Wheat powdery mildew
  pest or weed control at 400 ppm: 0%
Corn rust
  pest or weed control at 400 ppm: 50%

## Cc1nn(C)c(C(=O)NCCc2ccc(O)cc2)c1Cl [VIII-138]
Cucumber downy mildew [1]; 400 ppm
  pest or weed control at 400 ppm: 0%
Wheat powdery mildew
  pest or weed control at 400 ppm: 0%
Corn rust
  pest or weed control at 400 ppm: 0%

## CCc1nn(C)c(C(=O)NCCc2ccc(O)cc2)c1Cl [VIII-139]
Cucumber downy mildew [1]; 400 ppm
  pest or weed control at 400 ppm: 0%
Wheat powdery mildew
  pest or weed control at 400 ppm: 0%
Corn rust
  pest or weed control at 400 ppm: 0%

## N#Cc1c(Cl)c(Cl)c(Cl)c(C#N)c1Cl [chlorothalonil, reference compound]
Cucumber downy mildew [3]; 800 ppm
  Control (%) average: 74%
  Control (%) I: 68%
  Control (%) II: 73%
  Control (%) III: 81%

## COc1ccc(C(=CC(=O)N2CCOCC2)c2ccc(Cl)cc2)cc1OC [dimethomorph, reference compound]
Cucumber downy mildew [3]; 200 ppm
  Control (%) average: 53%
  Control (%) I: 44%
  Control (%) II: 52%
  Control (%) III: 63%
Cucumber downy mildew [1]; 6.25 ppm
  Control (%): 29%
Cucumber downy mildew [1]; 12.5 ppm
  Control (%): 74%
Cucumber downy mildew [1]; 25 ppm
  Control (%): 85%
Cucumber downy mildew [1]; 50 ppm
  Control (%): 88%
Cucumber downy mildew [1]; 100 ppm
  Control (%): 100%
Cucumber downy mildew [4]; 25 ppm, inoculation 3 days after treatment
  Control (%): 0%
Cucumber downy mildew [4]; 25 ppm, inoculation 7 days after treatment
  Control (%): 0%
Cucumber downy mildew [4]; 50 ppm, inoculation 3 days after treatment
  Control (%): 30%
Cucumber downy mildew [4]; 50 ppm, inoculation 7 days after treatment
  Control (%): 0%
Cucumber downy mildew [4]; 100 ppm, inoculation 3 days after treatment
  Control (%): 44%
Cucumber downy mildew [4]; 100 ppm, inoculation 7 days after treatment
  Control (%): 0%
Cucumber downy mildew [4]; 200 ppm, inoculation 3 days after treatment
  Control (%): 74%
Cucumber downy mildew [4]; 200 ppm, inoculation 7 days after treatment
  Control (%): 44%
Cucumber downy mildew [4]; 400 ppm, inoculation 3 days after treatment
  Control (%): 100%
Cucumber downy mildew [4]; 400 ppm, inoculation 7 days after treatment
  Control (%): 74%

## O=[N+]([O-])c1cc(C(F)(F)F)c(Cl)c([N+](=O)[O-])c1Nc1ncc(C(F)(F)F)cc1Cl [fluazinam, reference compound]
Rice blast [5]; average of 3 replicates
  Control (%) average: 75%
Rice blast [5]; replicate I
  Control (%) I: 70%
Rice blast [5]; replicate II
  Control (%) II: 75%
Rice blast [5]; replicate III
  Control (%) III: 80%

## COCC(=O)N(c1c(C)cccc1C)C(C)C(=O)OC (centres unmarked) [metalaxyl, reference compound]
Cucumber downy mildew [1]; 6.25 ppm
  Control (%): 0%
Cucumber downy mildew [1]; 12.5 ppm
  Control (%): 7%
Cucumber downy mildew [1]; 25 ppm
  Control (%): 22%
Cucumber downy mildew [1]; 50 ppm
  Control (%): 29%
Cucumber downy mildew [1]; 100 ppm
  Control (%): 59%
